Results as given in patent US10004225B2, “Wearable insect repelling patch” (S. C. Johnson & Son, Inc., priority 2005, dated 2018).

Legend:
[1] = @ 25° C.; cited from earlier work
[2] = tested on: mosquitoes; test: Additional field tests with FIG. 4 type patches, wrist bands and ankle bands; assay type: in vivo; conditions: 7.5 cm×7.5 cm patches, 10 mg each, two or four patches, one or two wrist bands, five to sixty minute monitoring, heavy mosquito populations
Procedure: We then tried some additional field tests with respect to mosquitoes using FIG. 4 type patches. Patches were made be adhering a multi-layer non-woven cloth made of rayon, polyester, polypropylene, and polyethylene fibers 30 to a multi-laminate foil film 34 with strips of 3M double facing tape 32. The cloth was 7.5 cm×7.5 cm in top view, and the dosing included for each patch 10 mg of metofluthrin dissolved in 2.53 ml of acetone.
We then sealed the patches in towelette pouches for storage prior to use. When the patch was to be used, we opened the pouch by tearing it open, removed the patch, peeled off the multi-laminate foil, and attached the cloth/tape structure to the specified locations.
We tested the use of two patches, the use of four patches, the use of one or two wrist bands, and the use of one or two ankle bands. All achieved over 50% repellency throughout a five minute to sixty minute monitoring under conditions of heavy mosquito populations.

[3] = tested on: mosquitoes; test: Three-chamber test apparatus, mosquito personal area repellency of hung patches with human test subject as attractant; assay type: in vivo; conditions: Example 1, 2 patches 103 cm^2, 60 mg each; for % Repellency: no adhesive
Procedure: Various patch sizes and insect repellents were tested, initially using the test apparatus shown schematically generally at 20 in FIG. 3. The test apparatus 20 has a sample chamber 22, connected to a mosquito chamber 24, which is connected via an opening 34 to a remote chamber 26. Each chamber is generally cubical, with a volume of about 0.43 m^3.
The sample chamber 22 has an open end 28 on the side remote from the mosquito chamber 24. A screen 30 divides the sample chamber 22 from the mosquito chamber 24. The opening 34 between the mosquito chamber 24 and the remote chamber 26 is slightly constricted by side walls 32. However, the opening 34 is still sufficiently large that mosquitoes can freely move between the mosquito and remote chambers 24 and 26.
Four, screened, low-flow exhaust ports 36 are located in the side walls 32, the exhaust ports facing the open end 28. Air is drawn through the exhaust ports 36 and exhausted from the mosquito chamber 24 at a rate sufficient to draw air in through the open end 28 but insufficient to affect the flying of mosquitoes placed in the mosquito chamber 24 or to disturb the air in the remote chamber 26.
For each test, a human test subject 38 is placed at the open end 28 of the sample chamber 22, the test subject's breath providing the warmth, CO2, and moisture known to be human attractants for mosquitoes. The exhaust ports 36 pull air, along with those attractants, though the open end 28 and on through the sample chamber 22, the screen 30, and the mosquito chamber 24. The attractants thus leave the apparatus 20 without entering the remote chamber 26.
Mosquitoes are placed in the mosquito chamber 24 and are quickly attracted to the screen 30 by the human attractants. The open end 28 is large enough to expose primarily the upper torso and head of the test subject. Two patches 10 are hung one foot into the sample chamber 22 and approximately 20 cm down from the chamber's top (except as was done otherwise in particular experiments, as is noted, below).
Percent repellency was calculated as the percent of mosquitoes that had been initially introduced into the mosquito chamber 24 (most of which were attracted to the screen 30 before the patches 10 were put in place), that then were repelled from the screen when the patches were introduced. The “repellency” indicated in the table, below, for time zero reflects the mosquitoes that were not yet attracted to the screen 30 by the time the test patches 10 were introduced. […] The patches 10 used were 103 cm^2 in size, with no adhesive layer 18.
The patch material was a non-woven cloth material comprised of rayon, polyester, and polypropylene (as described in published U.S. Patent Application US20040082248), dosed with 60 mg of the active ingredient. The controls used no patches.
The same test apparatus 20 was used in the same way as described in Example 1, with the following changes. When a test included four patches 10, two were hung as in Example 1, and two were hung about 13 cm from the bottom of the chamber to simulate patches worn on the shoulders and at the waist of a user. In one test, as indicated in the table, below, the patches 10 were attached to the test subject's chest. Each individual patch was treated with the amount of insect repellent indicated. Time is shown in minutes.

For CC=C[C@@H]1[C@@H](C(=O)OCc2c(F)c(F)c(COC)c(F)c2F)C1(C)C (racemic) [metofluthrin, 2,3,5,6-tetrafluoro-4-methoxymethylbenzyl (EZ)-(1RS,3RS)-2,2-dimethyl-3-(prop-1-enyl)-cyclopropanecarboxylate], the Vapor pressure [1] is given as 3.4 × 10^−6 mmHg @, the repellency [2] is given as “over 50%” and the “personal area repellency (result in words)” value [3] is given as “successful personal area repellency”. For the same molecule, the “% Repellency” value ([3]; 5 min) was 72%, the “% Repellency” value ([3]; 10 min) was 92% and the “% Repellency” value ([3]; 15 min) was 96%. The “% Repellency” value ([3]; 20 min) was 98% and the “% Repellency” value ([3]; time 0 min (mosquitoes not yet attracted to screen)) was 10%.
